Values after ≈ are worked out from the molar mass of the structure shown. Active and inactive are the calls of the source. The rule behind the calls is not given here.

The values below come from ChEMBL document CHEMBL1833826, “Evaluation of PI polyamide conjugates with eight-base pair recognition and improvement of the aqueous solubility by PEGylation” (Bioorg Med Chem, 2011).

One series has as its system A549. Nature of the series: Cytotoxicity against human A549 cells after 48 hrs. It is filed as functional, cell-based. Particulars: A549, 48 h.
The next series relates to DU-145. Nature of the series: Cytotoxicity against human DU145 cells after 48 hrs. The format is functional, cell-based. Particulars: DU-145, 48 h.
In series [1] the test system is Nucleic Acid. The series can be described thus: Induction of 5'-Texas Red-labelled 208-bp DNA alkylation at 5'-ATTCACTA-3' sequence at 25 to 200 nM after 18 hrs followed by quenching with calf thymus DNA by PAGE analysis. The format is nucleic-acid assay. The conditions noted are these: Homo sapiens.
Series [2] has as its system Nucleic Acid. The series can be described thus: Induction of 5'-Texas Red-labelled 208-bp DNA alkylation at 5'-AATACTCA-3' sequence at 25 to 200 nM after 18 hrs followed by quenching with calf thymus DNA by PAGE analysis. The format is nucleic-acid assay.
Series [3] concerns Nucleic Acid. Nature of the series: Induction of 5'-Texas Red-labelled 208-bp DNA alkylation at 5'-ATTTGTCA-3' sequence at 25 to 200 nM after 18 hrs followed by quenching with calf thymus DNA by PAGE analysis. The conditions noted are these: Homo sapiens. The format is nucleic-acid assay.
Series [4] can be described thus: Solubility of the compound in Milli-Q water at 25 degC. The format is physicochemical.
Series [5] is described as follows: Chemical stability of the compound in 5 mM sodium phosphate buffer containing 10% DMF at pH 7 assessed as half life by HPLC analysis. The format is physicochemical.
Series [6] deals with Nucleic Acid. The series can be described thus: Induction of 5'-Texas Red-labelled 208-bp DNA alkylation at 5'-TGCATCCA-3' sequence at 25 to 200 nM after 18 hrs followed by quenching with calf thymus DNA by PAGE analysis. It is filed as nucleic-acid assay.
Series [7] relates to Nucleic Acid. Nature of the series: Induction of 5'-Texas Red-labelled 208-bp DNA alkylation at 5'-GTCATCCA-3' sequence at 25 to 200 nM after 18 hrs followed by quenching with calf thymus DNA by PAGE analysis. It is filed as nucleic-acid assay.
Series [8] has as its system Nucleic Acid. The series can be described thus: Induction of 5'-Texas Red-labelled 208-bp DNA alkylation at 5'-TCCATCCA-3' sequence at 25 to 200 nM after 18 hrs followed by quenching with calf thymus DNA by PAGE analysis. The format is nucleic-acid assay. The conditions noted are these: Homo sapiens.

On to `CC(=O)Nc1cn(C)c(C(=O)Nc2cn(C)c(C(=O)Nc3cc(C(=O)Nc4cc(C(=O)NCCCC(=O)Nc5cn(C)c(C(=O)Nc6cn(C)c(C(=O)Nc7ccc8[nH]c(C(=O)N9CC(CCl)c%10c9cc(O)c9ccccc%109)cc8c7)n6)n5)n(C)c4)n(C)c3)n2)n1` (configuration not stated), for which the values for the IC50 in the series on A549 and in the series on DU-145 were 135 nM and 47 nM, respectively.

On to `CC(=O)Nc1cc(C(=O)Nc2cn(C)c(C(=O)NCCC(=O)Nc3cn(C)c(C(=O)Nc4cc(C(=O)Nc5cc(C(=O)NCCCC(=O)Nc6cc(C(=O)Nc7cc(C(=O)Nc8cc(C(=O)Nc9cc(C(=O)Nc%10ccc%11[nH]c(C(=O)N%12CC(CCl)c%13c%12cc(O)c%12ccccc%13%12)cc%11c%10)n(C)c9)n(C)c8)n(C)c7)n(C)c6)n(C)c5)n(C)c4)n3)n2)n(C)c1` (configuration not stated), for which the IC50 in the series on A549 was 240 nM; in the series on DU-145, 62 nM. Also, the outcome with Nucleic Acid [1] was Active.

On to `CC(=O)Nc1cn(C)c(C(=O)Nc2cc(C(=O)Nc3cc(C(=O)NCCC(=O)Nc4cc(C(=O)Nc5cc(C(=O)NCCCC(=O)Nc6cc(C(=O)Nc7cc(C(=O)NCCC(=O)Nc8cn(C)c(C(=O)Nc9ccc%10[nH]c(C(=O)N%11CC(CCl)c%12c%11cc(O)c%11ccccc%12%11)cc%10c9)n8)n(C)c7)n(C)c6)n(C)c5)n(C)c4)n(C)c3)n(C)c2)n1` (configuration not stated), for which the Activity in the series on Nucleic Acid [2] turned out to be 54%. Besides, the values for the IC50 in the series on A549 and in the series on DU-145 were 29 nM and 7.9 nM, respectively. In the series with Nucleic Acid [3], the outcome was Active.

Turning to `CC(=O)Nc1cn(C)c(C(=O)Nc2cc(C(=O)Nc3cc(C(=O)NCCC(=O)Nc4cc(C(=O)NCCCC(=O)Nc5cc(C(=O)NCCC(=O)Nc6cn(C)c(C(=O)Nc7ccc8[nH]c(C(=O)N9CC(CCl)c%10c9cc(O)c9ccccc%109)cc8c7)n6)n(C)c5)n(C)c4)n(C)c3)n(C)c2)n1` (configuration not stated), the results for the IC50 in the series on A549 and with DU-145 were 51 nM and 28 nM, respectively.

For the molecule `COCCNC(=O)Oc1cc2c(c3ccccc13)C(CCl)CN2C(=O)c1cc2cc(NC(=O)c3cc(NC(=O)c4cc(NC(=O)c5cc(NC(=O)c6cc(NC(=O)CCCNC(=O)c7cc(NC(=O)c8cc(NC(=O)c9nc(NC(=O)CCNC(=O)c%10nc(NC(=O)c%11cc(NC(C)=O)cn%11C)cn%10C)cn9C)cn8C)cn7C)cn6C)cn5C)cn4C)cn3C)ccc2[nH]1` (configuration not stated), in [4], the solubility worked out at 180 µM (≈ 323 µg/mL). Moreover, in series [5], the half-life is 3.5 h.

In [4], `CC(=O)Nc1cc(C(=O)Nc2cn(C)c(C(=O)NCCC(=O)Nc3cn(C)c(C(=O)Nc4cc(C(=O)Nc5cc(C(=O)NCCCC(=O)Nc6cc(C(=O)Nc7cc(C(=O)Nc8cc(C(=O)Nc9cc(C(=O)Nc%10ccc%11[nH]c(C(=O)N%12CC(CCl)c%13c%12cc(OC(=O)[C@@H](N)CCCCN)c%12ccccc%13%12)cc%11c%10)n(C)c9)n(C)c8)n(C)c7)n(C)c6)n(C)c5)n(C)c4)n3)n2)n(C)c1` (some centres not stated) showed a solubility of 1200 µM (≈ 2180 µg/mL). For the same molecule, in series [5], the half-life was under 1 h.

Take `CC(=O)Nc1cn(C)c(C(=O)Nc2cn(C)c(C(=O)Nc3cc(C(=O)NCCC(=O)Nc4cn(C)c(C(=O)Nc5cn(C)c(C(=O)NCCCC(=O)Nc6cc(C(=O)Nc7cc(C(=O)NCCC(=O)Nc8cc(C(=O)Nc9ccc%10[nH]c(C(=O)N%11CC(CCl)c%12c%11cc(O)c%11ccccc%12%11)cc%10c9)n(C)c8)n(C)c7)n(C)c6)n5)n4)n(C)c3)n2)n1` (configuration not stated): the Activity in the series with Nucleic Acid [6] amounted to 47%; in the series on Nucleic Acid [7], 11%. The IC50 in the series on A549 is 240 nM; in the series with DU-145 it was 45 nM. Further, the outcome with Nucleic Acid [8] was Active.

In series [4], `CC(=O)Nc1cc(C(=O)Nc2cn(C)c(C(=O)NCCC(=O)Nc3cn(C)c(C(=O)Nc4cc(C(=O)Nc5cc(C(=O)NCCCC(=O)Nc6cc(C(=O)Nc7cc(C(=O)Nc8cc(C(=O)Nc9cc(C(=O)Nc%10ccc%11[nH]c(C(=O)N%12CC(CCl)c%13c%12cc(OC(=O)NCCCN(C)C)c%12ccccc%13%12)cc%11c%10)n(C)c9)n(C)c8)n(C)c7)n(C)c6)n(C)c5)n(C)c4)n3)n2)n(C)c1` (configuration not stated) yielded a solubility of 230 µM (≈ 418 µg/mL). Further, the half-life in series [5] is 1.1 h.
